Reference: patent US20260027116A1, “Methods of Treating Chronic Graft-Versus-Host Disease Following Allogeneic Hematopoietic Stem Cell Transplantation” (Kadmon Corporation, LLC, priority 2022, published 2026)

Experiments:
lung function = assay: Example 1: percent predicted TLC change from baseline; format: in vivo, human; conditions: mean (SD)
Procedure: Change From Baseline in Percent Predicted Total Lung Capacity (TLC) at Each Specified Time Points. TLC is the volume of air in the lungs upon the maximum effort of inspiration. Baseline value was defined as valid and last non-missing value obtained within 28 days prior to participant receiving first study medication. EOT visit was performed within 3 days after the participant's last dose of study drug. […] Analysis was performed on mITT population. Here, ‘number analyzed’=participants with available data for each specified category. Here, ‘0’ in the number analyzed field signifies that none of the participants were available for the analysis at the specified time points.

CYP2D6 = CYP2D6 (Homo sapiens, UniProt P10635); assay: enzyme inhibition in vitro; format: in vitro ADME
CYP2D6, sequence (P10635 whole entry): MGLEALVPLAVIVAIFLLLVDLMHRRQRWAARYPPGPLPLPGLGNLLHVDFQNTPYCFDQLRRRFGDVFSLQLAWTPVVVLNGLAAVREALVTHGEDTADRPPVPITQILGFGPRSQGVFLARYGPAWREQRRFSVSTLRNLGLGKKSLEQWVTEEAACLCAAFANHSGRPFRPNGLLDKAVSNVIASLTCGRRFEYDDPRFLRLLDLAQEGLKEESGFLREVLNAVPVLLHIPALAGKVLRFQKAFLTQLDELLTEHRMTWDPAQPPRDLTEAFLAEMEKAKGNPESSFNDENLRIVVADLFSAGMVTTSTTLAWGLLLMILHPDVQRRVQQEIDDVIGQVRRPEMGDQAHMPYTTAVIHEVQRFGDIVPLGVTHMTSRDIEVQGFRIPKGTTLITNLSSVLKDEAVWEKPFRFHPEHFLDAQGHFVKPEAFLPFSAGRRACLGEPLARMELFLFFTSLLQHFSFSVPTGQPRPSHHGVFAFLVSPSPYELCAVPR

SMILES: CC(C)NC(=O)COc1cccc(-c2nc(Nc3ccc4[nH]ncc4c3)c3ccccc3n2)c1 [Belumosudil, 2-{3-[4-(1H-indazol-5-ylamino)-2-quinazolinyl]phenoxy}-N-(propan-2-yl) acetamide]
- Change From Baseline in Percent Predicted Total Lung Capacity (TLC) (lung function; Cohort 2: 200 mg BID, Cycle 13, Day 1): −10.3 (18.7) Percent Predicted TLC
- Change From Baseline in Percent Predicted Total Lung Capacity (TLC) (lung function; Cohort 2: 200 mg BID, Cycle 14, Day 1): −7.0 (—) Percent Predicted TLC
- Change From Baseline in Percent Predicted Total Lung Capacity (TLC) (lung function; Cohort 2: 200 mg BID, Cycle 15, Day 1): −1.0 (5.6) Percent Predicted TLC
- Change From Baseline in Percent Predicted Total Lung Capacity (TLC) (lung function; Cohort 2: 200 mg BID, Cycle 16, Day 1): −14.0 (12.7) Percent Predicted TLC
- Change From Baseline in Percent Predicted Total Lung Capacity (TLC) (lung function; Cohort 2: 200 mg BID, Cycle 17, Day 1): −17.0 (11.4) Percent Predicted TLC
- Change From Baseline in Percent Predicted Total Lung Capacity (TLC) (lung function; Cohort 2: 200 mg BID, Cycle 18, Day 1): −16.0 (8.5) Percent Predicted TLC
- Change From Baseline in Percent Predicted Total Lung Capacity (TLC) (lung function; Cohort 2: 200 mg BID, Cycle 19, Day 1): −7.7 (10.5) Percent Predicted TLC
- Change From Baseline in Percent Predicted Total Lung Capacity (TLC) (lung function; Cohort 2: 200 mg BID, Cycle 20, Day 1): −9.5 (16.3) Percent Predicted TLC
- Change From Baseline in Percent Predicted Total Lung Capacity (TLC) (lung function; Cohort 2: 200 mg BID, Cycle 21, Day 1): −18.0 (—) Percent Predicted TLC
- Change From Baseline in Percent Predicted Total Lung Capacity (TLC) (lung function; Cohort 2: 200 mg BID, Cycle 22, Day 1): −18.5 (6.4) Percent Predicted TLC
- Change From Baseline in Percent Predicted Total Lung Capacity (TLC) (lung function; Cohort 2: 200 mg BID, Cycle 23, Day 1): −21.0 (19.8) Percent Predicted TLC
- Change From Baseline in Percent Predicted Total Lung Capacity (TLC) (lung function; Cohort 2: 200 mg BID, Cycle 24, Day 1): −15.0 (—) Percent Predicted TLC
- Change From Baseline in Percent Predicted Total Lung Capacity (TLC) (lung function; Cohort 2: 200 mg BID, Cycle 25, Day 1): −19.5 (13.4) Percent Predicted TLC
- Change From Baseline in Percent Predicted Total Lung Capacity (TLC) (lung function; Cohort 2: 200 mg BID, Cycle 27, Day 1): −24.0 (12.7) Percent Predicted TLC
- Change From Baseline in Percent Predicted Total Lung Capacity (TLC) (lung function; Cohort 2: 200 mg BID, Cycle 29, Day 1): −27.5 (21.9) Percent Predicted TLC
- Change From Baseline in Percent Predicted Total Lung Capacity (TLC) (lung function; Cohort 2: 200 mg BID, Cycle 31, Day 1): −36.0 (—) Percent Predicted TLC
- Change From Baseline in Percent Predicted Total Lung Capacity (TLC) (lung function; Cohort 2: 200 mg BID, Cycle 33, Day 1): −39.0 (—) Percent Predicted TLC
- Change From Baseline in Percent Predicted Total Lung Capacity (TLC) (lung function; Cohort 2: 200 mg BID, Cycle 35, Day 1): −23.5 (16.3) Percent Predicted TLC
- Change From Baseline in Percent Predicted Total Lung Capacity (TLC) (lung function; Cohort 2: 200 mg BID, EOT): −2.4 (15.0) Percent Predicted TLC
- Change From Baseline in Percent Predicted Total Lung Capacity (TLC) (lung function; Cohort 3: 400 mg QD, Cycle 2, Day 1): −9.0 (13.4) Percent Predicted TLC
- Change From Baseline in Percent Predicted Total Lung Capacity (TLC) (lung function; Cohort 3: 400 mg QD, Cycle 3, Day 1): −0.6 (14.8) Percent Predicted TLC
- Change From Baseline in Percent Predicted Total Lung Capacity (TLC) (lung function; Cohort 3: 400 mg QD, Cycle 4, Day 1): 3.3 (14.0) Percent Predicted TLC
- Change From Baseline in Percent Predicted Total Lung Capacity (TLC) (lung function; Cohort 3: 400 mg QD, Cycle 5, Day 1): −1.7 (11.2) Percent Predicted TLC
- Change From Baseline in Percent Predicted Total Lung Capacity (TLC) (lung function; Cohort 3: 400 mg QD, Cycle 6, Day 1): −4.4 (11.6) Percent Predicted TLC
- Change From Baseline in Percent Predicted Total Lung Capacity (TLC) (lung function; Cohort 3: 400 mg QD, Cycle 7, Day 1): −2.6 (13.4) Percent Predicted TLC
- Change From Baseline in Percent Predicted Total Lung Capacity (TLC) (lung function; Cohort 3: 400 mg QD, Cycle 8, Day 1): −0.2 (12.9) Percent Predicted TLC
- Change From Baseline in Percent Predicted Total Lung Capacity (TLC) (lung function; Cohort 3: 400 mg QD, Cycle 9, Day 1): −0.9 (15.8) Percent Predicted TLC
- Change From Baseline in Percent Predicted Total Lung Capacity (TLC) (lung function; Cohort 3: 400 mg QD, Cycle 10, Day 1): 3.6 (14.7) Percent Predicted TLC
- Change From Baseline in Percent Predicted Total Lung Capacity (TLC) (lung function; Cohort 3: 400 mg QD, Cycle 11, Day 1): −3.0 (19.7) Percent Predicted TLC
- Change From Baseline in Percent Predicted Total Lung Capacity (TLC) (lung function; Cohort 3: 400 mg QD, Cycle 12, Day 1): −8.0 (14.2) Percent Predicted TLC
- Change From Baseline in Percent Predicted Total Lung Capacity (TLC) (lung function; Cohort 3: 400 mg QD, Cycle 13, Day 1): −3.3 (17.6) Percent Predicted TLC
- Change From Baseline in Percent Predicted Total Lung Capacity (TLC) (lung function; Cohort 3: 400 mg QD, Cycle 14, Day 1): −5.8 (16.5) Percent Predicted TLC
- Change From Baseline in Percent Predicted Total Lung Capacity (TLC) (lung function; Cohort 3: 400 mg QD, Cycle 15, Day 1): −7.0 (12.0) Percent Predicted TLC
- Change From Baseline in Percent Predicted Total Lung Capacity (TLC) (lung function; Cohort 3: 400 mg QD, Cycle 16, Day 1): −15.5 (9.5) Percent Predicted TLC
- Change From Baseline in Percent Predicted Total Lung Capacity (TLC) (lung function; Cohort 3: 400 mg QD, Cycle 17, Day 1): −18.1 (15.6) Percent Predicted TLC
- Change From Baseline in Percent Predicted Total Lung Capacity (TLC) (lung function; Cohort 3: 400 mg QD, Cycle 18, Day 1): 0.0 (13.9) Percent Predicted TLC
- Change From Baseline in Percent Predicted Total Lung Capacity (TLC) (lung function; Cohort 3: 400 mg QD, Cycle 19, Day 1): −7.0 (5.4) Percent Predicted TLC
- Change From Baseline in Percent Predicted Total Lung Capacity (TLC) (lung function; Cohort 3: 400 mg QD, Cycle 20, Day 1): −9.3 (15.4) Percent Predicted TLC
- Change From Baseline in Percent Predicted Total Lung Capacity (TLC) (lung function; Cohort 3: 400 mg QD, Cycle 21, Day 1): −14.4 (24.0) Percent Predicted TLC
- Change From Baseline in Percent Predicted Total Lung Capacity (TLC) (lung function; Cohort 3: 400 mg QD, Cycle 22, Day 1): −21.0 (14.1) Percent Predicted TLC
- Change From Baseline in Percent Predicted Total Lung Capacity (TLC) (lung function; Cohort 3: 400 mg QD, Cycle 23, Day 1): −2.8 (18.8) Percent Predicted TLC
- Change From Baseline in Percent Predicted Total Lung Capacity (TLC) (lung function; Cohort 3: 400 mg QD, Cycle 24, Day 1): −34.0 (—) Percent Predicted TLC
- Change From Baseline in Percent Predicted Total Lung Capacity (TLC) (lung function; Cohort 3: 400 mg QD, Cycle 25, Day 1): −6.3 (24.1) Percent Predicted TLC
- Change From Baseline in Percent Predicted Total Lung Capacity (TLC) (lung function; Cohort 3: 400 mg QD, Cycle 27, Day 1): −14.5 (24.7) Percent Predicted TLC
- Change From Baseline in Percent Predicted Total Lung Capacity (TLC) (lung function; Cohort 3: 400 mg QD, Cycle 29, Day 1): 12.0 (14.1) Percent Predicted TLC
- Change From Baseline in Percent Predicted Total Lung Capacity (TLC) (lung function; Cohort 3: 400 mg QD, Cycle 31, Day 1): 17.0 (—) Percent Predicted TLC
- Change From Baseline in Percent Predicted Total Lung Capacity (TLC) (lung function; Cohort 3: 400 mg QD, Cycle 35, Day 1): 13.0 (—) Percent Predicted TLC
- Change From Baseline in Percent Predicted Total Lung Capacity (TLC) (lung function; Cohort 3: 400 mg QD, Cycle 36, Day 1): −6.0 (—) Percent Predicted TLC
- Change From Baseline in Percent Predicted Total Lung Capacity (TLC) (lung function; Cohort 3: 400 mg QD, Cycle 49, Day 1): 1.0 (—) Percent Predicted TLC
- Change From Baseline in Percent Predicted Total Lung Capacity (TLC) (lung function; Cohort 3: 400 mg QD, EOT): −12.6 (20.1) Percent Predicted TLC
- inhibition of CYP2D6 (CYP2D6): inhibitor
